Laboratory results: patent US8282778B2, “Prevention of bacterial spore formation in a broke system of a board machine” (Kemira Oyj, priority 2006, dated 2012)
Where two headings read alike, the source gives them in different places.

What was measured:
[1] = tested on: Bacillus licheniformis 217 strain; experiment: Example 1: sporulation of bacilli isolated from a board machine in sterilized dilute broke with spray starch; assay type: cell-based
Description: In this laboratory experiment, the effect of bivalent manganese and bivalent iron as well as a chelating agent (DTPA, diethylenetriaminepentaacetic acid) on the sporulation of bacilli isolated from a board machine was studied under conditions of the broke system. For the experiment, an inoculum free of spores was prepared from the Bacillus licheniformis 217 strain by carrying out three consecutive cultivations in a liquid medium for 24 hours (Tryptone-Yeast Extract Medium, +50° C., agitation at 100 rpm) using a low inoculation ratio (0.1% by volume/volume). Broke free of spores was produced by sterilizing dilute broke of the board machine. A low amount of spray starch used in the board machine was added to the broke to make up for the amount of starch consumed by bacterial activity during the transportation of the broke sample to the laboratory. The broke was divided into aliquots of 25 ml each and filled in tubes, followed by the addition of the test agents at different concentrations. […] The amounts of aerobic bacteria and aerobic spores in each tube were determined after different exposure times. The amount of aerobic bacteria were determined by a filtering method, whereas aerobic spores were determined from pasteurized (20 min, 80° C.) samples using the pour plate method (Plate Count Agar in both cases, 45° C., 3 d).

[2] = tested on: Bacillus licheniformis 217 strain; experiment: Example 3: sporulation of bacilli in broke, metals, DTPA and test product C; assay type: cell-based
Description: In this laboratory experiment, the effect of bivalent manganese and bivalent iron as well as a chelating agent (DTPA, diethylenetriaminepentaacetic acid) on the sporulation of bacilli isolated from a board machine was studied under conditions of the broke system. For the experiment, an inoculum free of spores was prepared from the Bacillus licheniformis 217 strain by carrying out three consecutive cultivations in a liquid medium for 24 hours (Tryptone-Yeast Extract Medium, +50° C., agitation at 100 rpm) using a low inoculation ratio (0.1% by volume/volume). Broke free of spores was produced by sterilizing dilute broke of the board machine. A low amount of spray starch used in the board machine was added to the broke to make up for the amount of starch consumed by bacterial activity during the transportation of the broke sample to the laboratory. The broke was divided into aliquots of 25 ml each and filled in tubes, followed by the addition of the test agents at different concentrations. 0.2% stock solutions of manganese (Mn(II)Cl2×4H2O) and iron (Fe(II)SO4×7H2O) in deionized water were sterile filtered using 0.2 μm spray filters. 25 μl of the Bacillus culture free of spores were added to each tube, followed by keeping the tubes at 45° C. (agitation at 100 rpm). The amounts of aerobic bacteria and aerobic spores in each tube were determined after different exposure times. The amount of aerobic bacteria were determined by a filtering method, whereas aerobic spores were determined from pasteurized (20 min, 80° C.) samples using the pour plate method (Plate Count Agar in both cases, 45° C., 3 d).
In this laboratory experiment, the effect of a test product C containing a dispersing agent and DTPA on sporulation of bacilli isolated from a board machine was studied under the conditions in the broke system. […]

[3] = pulping process; cited from earlier work
[4] = tested on: Bacillus subtilis bacteria; settings: cited from earlier work
aconitase enzyme = aconitase enzyme (Bacillus subtilis, UniProt P09339); settings: concentrations of less than 1 mM; cited from earlier work
Sequence of aconitase enzyme (P09339 whole entry): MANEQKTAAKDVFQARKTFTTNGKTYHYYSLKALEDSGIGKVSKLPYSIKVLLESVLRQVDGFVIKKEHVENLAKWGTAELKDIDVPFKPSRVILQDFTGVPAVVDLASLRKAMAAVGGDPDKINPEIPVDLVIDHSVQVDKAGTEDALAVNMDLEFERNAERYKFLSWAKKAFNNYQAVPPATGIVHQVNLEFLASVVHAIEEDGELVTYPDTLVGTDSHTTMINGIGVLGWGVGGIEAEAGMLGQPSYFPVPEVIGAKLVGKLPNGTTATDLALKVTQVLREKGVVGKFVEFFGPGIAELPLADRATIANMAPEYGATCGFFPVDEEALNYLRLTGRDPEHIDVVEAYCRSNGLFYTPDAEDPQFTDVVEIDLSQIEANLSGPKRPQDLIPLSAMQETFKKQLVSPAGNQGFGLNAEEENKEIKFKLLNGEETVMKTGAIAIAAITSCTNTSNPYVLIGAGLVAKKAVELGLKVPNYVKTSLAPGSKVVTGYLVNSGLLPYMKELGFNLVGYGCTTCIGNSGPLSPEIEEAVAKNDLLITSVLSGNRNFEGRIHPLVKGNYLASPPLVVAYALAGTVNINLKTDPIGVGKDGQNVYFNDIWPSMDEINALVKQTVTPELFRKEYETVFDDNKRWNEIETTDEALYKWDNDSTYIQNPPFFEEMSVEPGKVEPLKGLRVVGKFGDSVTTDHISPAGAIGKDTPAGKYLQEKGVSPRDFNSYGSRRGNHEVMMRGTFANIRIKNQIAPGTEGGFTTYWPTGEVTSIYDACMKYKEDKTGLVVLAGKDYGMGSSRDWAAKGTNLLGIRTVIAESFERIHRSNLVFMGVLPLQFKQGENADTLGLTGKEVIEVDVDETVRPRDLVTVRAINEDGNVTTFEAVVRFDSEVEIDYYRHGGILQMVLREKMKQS

[5] = tested on: Bacillus subtilis bacteria; settings: cited from earlier work; remark: listed apart in the source

In the case of `O=C(O)CN(CCN(CC(=O)O)CC(=O)O)CCN(CC(=O)O)CC(=O)O` [DTPA, diethylenetriaminepentaacetic acid], the reduction of sporulation ([1]; 12.5 ppm (as active agent)) is reported as 79%, the inhibition of sporulation ([1]; 17.5 ppm) is reported as “total inhibition” and the “toxicity to bacilli (amount of aerobic bacteria, FIG. 5)” value [2] is reported as “neither DTPA nor the test product C was toxic”. It also gave a reduction of sporulation ([2]; 12 ppm (as active agent)) of 99.4% and a sporulation frequency ([2]; 12 ppm (as active agent)) of 0.11%.

In the case of `O=P(O)(O)CN(CCN(CP(=O)(O)O)CP(=O)(O)O)CCN(CP(=O)(O)O)CP(=O)(O)O` [DTPMP, diethylenetriamine-pentakis methylenephosphonic acid], the “chelating performance for manganese” value [3] is given as “over 95%”.

For `O=C(O)c1ccccn1` [alpha picolinic acid], the sporulation ([4]; concentration of 0.4 mM) is listed as “reduced sporulation” and the growth ([4]; concentrations of less than 1 mM (<123 ppm)) is listed as “not inhibited”.

For `c1ccc(-c2ccccn2)nc1` [dipyridyl], the aconitase enzyme inhibition (aconitase enzyme) is listed as “inhibited”.

For `[Mn+2]` [manganese], the “amount of sporulating cells of the wild type strain” value ([5]; 0.006 ppm manganese addition) is listed as “about 2.6%”, the “amount of sporulating cells of the wild type strain” value ([5]; 0.8 ppm of manganese added) is listed as 39% and the “amount of sporulating cells” value ([5]; manganese addition of 0.1 ppm or more, growth medium rich in nutrients) is listed as “increased”.

For `c1cnc2c(c1)ccc1cccnc12` [o-phenanthroline], the aconitase enzyme inhibition (aconitase enzyme) is given as “inhibited”.

In the case of `O=C(O)c1ccc2ccccc2n1` [quinaldic acid], the aconitase enzyme inhibition (aconitase enzyme) is listed as “inhibited”.
